Assay results reported in US20140256756A1, “PIPERIDINYL-SUBSTITUTED LACTAMS AS GPR119 MODULATORS” (Array BioPharma Inc., priority 2011, published 2014).

Tested on: modified version of the GPR119 receptor (94% identity to human receptor)
Experiment: cAMP production assay (LANCE cAMP kit, TR-FRET) in HEK-293 cells
Type: cell-based
Conditions: for cAMP production in HEK-293 cells: HEK-293 cells stably expressing modified GPR119, test compounds 0.2 nM to 10 μM, one-hour incubation; for Fold over baseline: increase in cAMP relative to basal levels, agonist activity if 1.5-fold or greater
Experimental: The assay utilized HEK-293 cells that stably express a modified version of the GPR119 receptor (94% identity to human receptor), under the control of a CMV promoter containing a tet-on element for tetracycline-inducible expression. GPR119 agonist-induced cyclic AMP (cAMP) production was measured in this cell line using the LANCE cAMP kit (Perkin Elmer, Waltham, Mass.). To generate a working stock of cells for the assay, cells were treated overnight with 1 μg/mL doxycycline at 37° C. in the presence of 5% CO2 to induce receptor expression. Cells were then harvested by enzymatic dissociation with 0.05% trypsin, resuspended in freezing medium (DMEM growth medium with 10% each of fetal bovine serum and DMSO), aliquoted and frozen at −80° C. On the day of the assay, frozen cells were thawed, washed 1× in PBS and resuspended in Hank's buffered salt solution (HBSS) containing 5 mM HEPES, 0.1% BSA and Alexa Fluor 647-conjugated anti-cAMP antibody (diluted 1:100). The cell suspension was then transferred to a Proxiplate Plus white 384-well assay plate (Perkin-Elmer) at 2000 cells/well. Test compounds at final concentrations ranging from 0.2 nM to 10 μM were added to the assay plate, followed by a one-hour incubation at ambient temperature (volume=10 μL/well). DMSO concentration was held constant at 0.5%. After incubation with test compounds, 10 μL, of a detergent buffer containing a biotinylated cAMP/Europium-conjugated streptavidin complex (Europium-labeled cAMP tracer) were added to each well on the assay plate, followed by a 2-hour incubation at ambient temperature. During this incubation cAMP released from lysed cells competes with the Europium-labeled cAMP tracer for binding to the Alexa Fluor 647-conjugated antibody. […] Cellular cAMP levels were then determined by interpolation of raw signal data using a cAMP standard curve. Compounds were determined to have agonist activity if they stimulated a 1.5-fold or greater increase in cAMP relative to basal levels.

Row | SMILES | cAMP production in HEK-293 cells [nmol] | Fold over baseline
1 | CC(C)c1nsc(N2CCC(N3CC[C@H](Nc4ccc(S(C)(=O)=O)cc4F)C3=O)CC2)n1 [Example 1, (S)-3-(2-fluoro-4-(methylsulfonyl)phenylamino)-1-(1-(3-isopropyl-1,2,4-thiadiazol-5-yl)piperidin-4-yl)pyrrolidin-2-one] | 21.6 | 3.3
2 | CC(C)c1nsc(N2CCC(N3CC[C@@H](Nc4ccc(S(C)(=O)=O)cc4F)C3=O)CC2)n1 [Example 2, (R)-3-(2-fluoro-4-(methylsulfonyl)phenylamino)-1-(1-(3-isopropyl-1,2,4-thiadiazol-5-yl)piperidin-4-yl)pyrrolidin-2-one] | 21.9 | 3.1
3 | CCS(=O)(=O)c1ccc(N[C@H]2CCN(C3CCN(c4nc(C(C)C)ns4)CC3)C2=O)c(F)c1 [Example 3, (S)-3-(4-(ethylsulfonyl)-2-fluorophenylamino)-1-(1-(3-isopropyl-1,2,4-thiadiazol-5-yl)piperidin-4-yl)pyrrolidin-2-one] | 25.3 | 5.4
4 | CC(C)c1nsc(N2CCC(N3CC[C@H](Nc4ccc(S(=O)(=O)C5CC5)cc4F)C3=O)CC2)n1 [Example 4, (S)-3-(4-(cyclopropylsulfonyl)-2-fluorophenylamino)-1-(1-(3-isopropyl-1,2,4-thiadiazol-5-yl)piperidin-4-yl)pyrrolidin-2-one] | 24.2 | 4.3
5 | CC(C)c1nsc(N2CCC(N3CC[C@H](Nc4cc(F)c(S(C)(=O)=O)cc4F)C3=O)CC2)n1 [Example 5, (S)-3-(2,5-difluoro-4-(methylsulfonyl)phenylamino)-1-(1-(3-isopropyl-1,2,4-thiadiazol-5-yl)piperidin-4-yl)pyrrolidin-2-one] | 19.2 | 2.7
6 | CC(C)c1nsc(N2CCC(N3CC[C@H](Nc4ccc(S(=O)(=O)CC5CC5)cc4F)C3=O)CC2)n1 [Example 6, (S)-3-(4-(cyclopropylmethylsulfonyl)-2-fluorophenylamino)-1-(1-(3-isopropyl-1,2,4-thiadiazol-5-yl)piperidin-4-yl)pyrrolidin-2-one] | 23.2 | 3.2
7 | CC(C)c1nsc(N2CCC(N3CC[C@@H](Nc4ccc(S(=O)(=O)C5CC5)cc4F)C3=O)CC2)n1 [Example 7, (R)-3-(4-(cyclopropylsulfonyl)-2-fluorophenylamino)-1-(1-(3-isopropyl-1,2,4-thiadiazol-5-yl)piperidin-4-yl)pyrrolidin-2-one] | 23.8 | 3.4
8 | CC(C)c1nsc(N2CCC(N3CC[C@H](Nc4ccc(S(=O)(=O)C(C)C)cc4F)C3=O)CC2)n1 [Example 8, (S)-3-(2-fluoro-4-(isopropylsulfonyl)phenylamino)-1-(1-(3-isopropyl-1,2,4-thiadiazol-5-yl)piperidin-4-yl)pyrrolidin-2-one] | 37.6 | 4.7
9 | CC(C)c1nsc(N2CCC(N3CC[C@H](Nc4cc(Cl)c(S(C)(=O)=O)cc4F)C3=O)CC2)n1 [Example 9, (S)-3-(5-chloro-2-fluoro-4-(methylsulfonyl)phenylamino)-1-(1-(3-isopropyl-1,2,4-thiadiazol-5-yl)piperidin-4-yl)pyrrolidin-2-one] | 16.0 | 4.0
10 | CC(C)c1nsc(N2CCC(N3CC[C@H](Nc4ccc(S(C)(=O)=O)cc4C#N)C3=O)CC2)n1 [Example 10, (S)-2-(1-(1-(3-isopropyl-1,2,4-thiadiazol-5-yl)piperidin-4-yl)-2-oxopyrrolidin-3-ylamino)-5-(methylsulfonyl)benzonitrile] | 11.3 | 2.3
11 | CC(C)c1nsc(N2CCC(N3CC[C@H](Nc4ccc(S(C)(=O)=O)c(Cl)c4)C3=O)CC2)n1 [Example 11, (S)-3-(3-chloro-4-(methylsulfonyl)phenylamino)-1-(1-(3-isopropyl-1,2,4-thiadiazol-5-yl)piperidin-4-yl)pyrrolidin-2-one] | 10.8 | 3.0
12 | CC(C)c1nsc(N2CCC(N3CC[C@H](Nc4ccc(S(C)(=O)=O)cc4Cl)C3=O)CC2)n1 [Example 12, (S)-3-(2-chloro-4-(methylsulfonyl)phenylamino)-1-(1-(3-isopropyl-1,2,4-thiadiazol-5-yl)piperidin-4-yl)pyrrolidin-2-one] | 17.5 | 3.9
13 | CC(C)c1nsc(N2CCC(N3CC[C@@H](Nc4ccc(S(=O)(=O)N(C)C)cc4F)C3=O)CC2)n1 [Example 13, (R)-3-fluoro-4-(1-(1-(3-isopropyl-1,2,4-thiadiazol-5-yl)piperidin-4-yl)-2-oxopyrrolidin-3-ylamino)-N,N-dimethylbenzenesulfonamide] | 25.2 | 3.4
14 | CC(C)c1nsc(N2CCC(N3CC[C@H](Nc4ncc(S(C)(=O)=O)cn4)C3=O)CC2)n1 [Example 14, (S)-1-(1-(3-isopropyl-1,2,4-thiadiazol-5-yl)piperidin-4-yl)-3-(5-(methylsulfonyl)pyrimidin-2-ylamino)pyrrolidin-2-one] | 17.5 | 2.8
15 | CC(C)c1nsc(N2CCC(N3CC[C@H](Nc4ccc(Br)cn4)C3=O)CC2)n1 [Example 15, (S)-3-(5-Bromopyridin-2-ylamino)-1-(1-(3-isopropyl-1,2,4-thiadiazol-5-yl)piperidin-4-yl)pyrrolidin-2-one] | 11.4 | 2.7
16 | CC(C)c1nsc(N2CCC(N3CC[C@H](Nc4ccc(S(C)(=O)=O)cn4)C3=O)CC2)n1 [Example 16, (S)-1-(1-(3-isopropyl-1,2,4-thiadiazol-5-yl)piperidin-4-yl)-3-(5-(methylsulfonyl)pyridin-2-ylamino)pyrrolidin-2-one] | 27.2 | 3.7
17 | Cc1cc(S(C)(=O)=O)cnc1N[C@H]1CCN(C2CCN(c3nc(C(C)C)ns3)CC2)C1=O [Example 17, (S)-1-(1-(3-isopropyl-1,2,4-thiadiazol-5-yl)piperidin-4-yl)-3-(3-methyl-5-(methylsulfonyl)pyridin-2-ylamino)pyrrolidin-2-one] | 11.2 | 2.1
18 | Cc1cc(N[C@H]2CCN(C3CCN(c4nc(C(C)C)ns4)CC3)C2=O)c(F)cc1S(C)(=O)=O [Example 18, (S)-3-(2-fluoro-5-methyl-4-(methylsulfonyl)phenylamino)-1-(1-(3-isopropyl-1,2,4-thiadiazol-5-yl)piperidin-4-yl)pyrrolidin-2-one] | 20.1 | 3.4
19 | CCS(=O)(=O)c1ccc(NC2CCN(C3CCN(c4nc(C(C)C)ns4)CC3)C2=O)cc1C (centres unmarked) [Example 19, 3-(4-(Ethylsulfonyl)-3-methylphenylamino)-1-(1-(3-isopropyl-1,2,4-thiadiazol-5-yl)piperidin-4-yl)pyrrolidin-2-one] | 16.4 | 2.4
